The numbers were not newly measured in patent US20100173015A1, “COMPOSITIONS AND METHODS FOR THE ABSORPTION, CHELATION, AND ELIMINATION OF TRACE ELEMENTS” (priority 2009, published 2010), which cites them from elsewhere.

Series [1] has as its system NQO1. Particulars: microarray, in the presence of taxifolin.
The test system of series [2] is umbilical vein endothelial (HUVE) cells.
Series [3] relates to human lung embryonic fibroblasts (TIG-1). The conditions noted are these: TIG-1 cells.
For series [4], the system named is GSTM1. Particulars: microarray, in the presence of taxifolin.
In series [5] the test system is CYP2E1. The conditions noted are these: microarray, in the presence of taxifolin.

Take `O=C1c2c(O)cc(O)cc2O[C@H](c2ccc(O)c(O)c2)[C@H]1O` [Dihydroquercetin]: in series [1], the “expression of phase II detoxification enzyme NQO1” value was “upregulated”. Also, the 50% lethal concentration in series [2] is more than 200 µmol; in series [3] it was more than 300 µmol. Also, the “expression of phase II detoxification enzyme GSTM1” value in series [4] is reported as “upregulated”. The “expression of phase I detoxification enzyme CYP2E1” value in series [5] is “down regulated”.
